Substitutions are numbered along the chain they refer to.
Columns and labels:
Conditions in all cases: for ΔpEC50±SEM: relative to WT, n = 3 in triplicate; for ΔpEC50±SEM / Span±SEM: mean ± SEM; for Span±SEM: window between maximal response (Emax) and vehicle, n = 3
PTH1R L174A mutant = target: T1, PTH1R L174A mutant (Homo sapiens, UniProt Q03431, L174A); assay: cAMP accumulation assay (GloSensor), PTH1R L174A; assay type: cell-based
T1 construct: a flag-tag was fused to the N terminal of full-length PTH1R (WT or mutant); expressed in transfected cells; host or cells: HEK293T
T1 sequence (Q03431 27-593 L174A): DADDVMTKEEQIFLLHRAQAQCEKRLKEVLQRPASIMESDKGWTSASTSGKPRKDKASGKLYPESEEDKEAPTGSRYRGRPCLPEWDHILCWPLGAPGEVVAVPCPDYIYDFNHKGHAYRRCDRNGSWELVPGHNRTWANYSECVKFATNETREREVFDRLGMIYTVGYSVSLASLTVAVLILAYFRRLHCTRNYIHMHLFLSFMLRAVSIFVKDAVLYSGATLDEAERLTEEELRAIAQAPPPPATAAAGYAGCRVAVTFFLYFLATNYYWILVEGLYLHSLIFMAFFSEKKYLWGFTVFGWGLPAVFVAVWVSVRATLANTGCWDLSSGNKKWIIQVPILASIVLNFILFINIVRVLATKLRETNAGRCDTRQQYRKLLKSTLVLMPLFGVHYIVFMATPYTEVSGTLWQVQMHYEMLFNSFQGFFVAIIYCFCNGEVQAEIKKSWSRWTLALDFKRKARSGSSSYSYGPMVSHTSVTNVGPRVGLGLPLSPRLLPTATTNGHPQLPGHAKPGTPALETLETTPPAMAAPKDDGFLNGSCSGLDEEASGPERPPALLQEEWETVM
Procedure: (§1) Human embryonic kidney 293 T (HEK293T, ATCC: CRL-1573) cells were transfected with a plasmid mixture consisting of pcDNA3.1-flag-PTH1R (WT or mutants) and the cAMP biosensor GloSensor-22F (Promega) at a ratio of 2:1 (see Supplementary Table 7 for a list of primers used in this study). After 24 h, transfected cells were plated onto a 384-well plate, which was treated with cell adherent reagent (Applygen) in advance. After another 12 h, cells were treated with Hank’s balanced salt solution for starvation and then incubated in CO2-independent media containing 4% GloSensor cAMP Reagent (Promega) at a volume of 5 μl per well and incubated for 20 min at RT before measurements for baseline luminescence (Spark Multimode microplate reader, TECAN). Next, test ligands were added at different concentrations from 10^−6 to 10^−13 M before second measurement. Finally, data were normalized to 100% of the maximal PTH (1-34) response for WT PTH1R using a sigmoidal dose-response in GraphPad Prism.
(§2) Statistical analyses were performed on at least three individual datasets and analysed using GraphPad Prism software. Bars represent differences in the calculated agonist potency (pEC50) and maximum agonist response (Emax) for each mutant relative to the WT receptor. Data are mean± s.e.m. from at least three independent experiments, performed in triplicates. ns, not significant, ^nsP > 0.01; ^*P < 0.01; ^**P < 0.001; ^***P < 0.0001 (one-way analysis of variance (ANOVA) followed by Dunnett’s test, compared with the response of the WT). For dose-response experiments, data were normalized and analyzed using nonlinear curve fitting for the log (agonist) versus response (three parameters) curves.

PTH1R F424A mutant = assay: cAMP accumulation assay (GloSensor), PTH1R F424A; assay type: cell-based, human
Procedure: as §1, with “After” for “Human embryonic kidney 293 T (HEK293T, ATCC: CRL-1573) cells were transfected with a plasmid mixture consisting of pcDNA3.1-flag-PTH1R (WT or mutants) and the cAMP biosensor GloSensor-22F (Promega) at a ratio of 2:1 (see Supplementary Table 7 for a list of primers used in this study). After”
Statistical analyses were performed on at least three individual datasets and analysed using GraphPad Prism software. […] Data are mean± s.e.m. from at least three independent experiments, performed in triplicates. ns, not significant, ^nsP > 0.01; ^*P < 0.01; ^**P < 0.001; ^***P < 0.0001 (one-way analysis of variance (ANOVA) followed by Dunnett’s test, compared with the response of the WT). For dose-response experiments, data were normalized and analyzed using nonlinear curve fitting for the log (agonist) versus response (three parameters) curves.

PTH1R L244A mutant = target: T2, PTH1R L244A mutant (Homo sapiens, UniProt Q03431, L244A); assay: cAMP accumulation assay (GloSensor), PTH1R L244A; assay type: cell-based
T2 construct: a flag-tag was fused to the N terminal of full-length PTH1R (WT or mutant); expressed in transfected cells; host or cells: HEK293T
T2 sequence (Q03431 27-593 L244A): T1 sequence (Q03431 27-593 L174A) with A148L, L218A
Procedure: as §1, §2

Row | Substance | span (from the WT) (PTH1R L174A mutant; PTH1R L1741.26A, replicate 1) | ΔpEC50 (from the WT) (PTH1R L174A mutant; PTH1R L1741.26A, replicate 1) | span (from the WT) (PTH1R L174A mutant; PTH1R L1741.26A, replicate 2) | ΔpEC50 (from the WT) (PTH1R L174A mutant; PTH1R L1741.26A, replicate 2) | span (from the WT) (PTH1R L174A mutant; PTH1R L1741.26A, replicate 3) | ΔpEC50 (from the WT) (PTH1R L174A mutant; PTH1R L1741.26A, replicate 3) | ΔpEC50±SEM (PTH1R L174A mutant) | ΔpEC50 (from the WT) (PTH1R L174A mutant; replicate 1) | ΔpEC50 (from the WT) (PTH1R L174A mutant; replicate 2) | ΔpEC50 (from the WT) (PTH1R L174A mutant; replicate 3) | Span±SEM (PTH1R L174A mutant) | span (from the WT) (PTH1R F424A mutant; PTH1R F4246.56A, replicate 1) | ΔpEC50 (from the WT) (PTH1R F424A mutant; PTH1R F4246.56A, replicate 1) | span (from the WT) (PTH1R F424A mutant; PTH1R F4246.56A, replicate 2) | ΔpEC50 (from the WT) (PTH1R F424A mutant; PTH1R F4246.56A, replicate 2) | span (from the WT) (PTH1R F424A mutant; PTH1R F4246.56A, replicate 3) | ΔpEC50 (from the WT) (PTH1R F424A mutant; PTH1R F4246.56A, replicate 3) | ΔpEC50±SEM (PTH1R F424A mutant) | ΔpEC50 (from the WT) (PTH1R F424A mutant; replicate 1) | ΔpEC50 (from the WT) (PTH1R F424A mutant; replicate 2) | further results
1 | H-AVAEIQLMHQRAKWIQDARRRAFLHKLIAEIHTAEI-OH [LA-PTH, long-acting PTH analog, modified PTH/PTHrP hybrid] | 93.64 | -0.262 | 87.77 | -0.161 | 98.4 | -0.17 | -0.20±0.03 | -0.262 | -0.161 | -0.17 | 93.27±3.07 | 141.3 | -1.04 | 117.4 | -1.083 | 173.2 | -1.36 | -1.16±0.1 | -1.04 | -1.083 | ΔpEC50 (from the WT) (PTH1R F424A mutant; replicate 3): -1.36; span (from the WT) (PTH1R L244A mutant; PTH1R L2442.71A, replicate 1): 131; ΔpEC50 (from the WT) (PTH1R L244A mutant; PTH1R L2442.71A, replicate 1): -0.382; span (from the WT) (PTH1R L244A mutant; PTH1R L2442.71A, replicate 2): 190.8; ΔpEC50 (from the WT) (PTH1R L244A mutant; PTH1R L2442.71A, replicate 2): -0.346; span (from the WT) (PTH1R L244A mutant; PTH1R L2442.71A, replicate 3): 179.4; ΔpEC50 (from the WT) (PTH1R L244A mutant; PTH1R L2442.71A, replicate 3): -0.43; ΔpEC50±SEM (PTH1R L244A mutant): -0.39±0.02; ΔpEC50 (from the WT) (PTH1R L244A mutant; replicate 1): -0.382; ΔpEC50 (from the WT) (PTH1R L244A mutant; replicate 2): -0.346; ΔpEC50 (from the WT) (PTH1R L244A mutant; replicate 3): -0.43; Span±SEM (PTH1R L244A mutant): 167.07±18.33
2 | H-AVSEHQLLHDKGKSIQDLRRRELLEKLL-{Aib}-KLHTA-NH2 [ABL, Abaloparatide, an analog of PTHrP, short-acting PTH1R agonist] | 94.46 | -0.37 | 117 | -0.52 | 129.9 | -0.682 | -0.52±0.09 | -0.37 | -0.52 | -0.682 | 113.79±10.36 | 148.5 | -1.943 | 140.3 | -2.006 | 170.8 | -2.077 | -2.01±0.04 | -1.943 | -2.006 | ΔpEC50 (from the WT) (PTH1R F424A mutant; replicate 3): -2.077; Span±SEM (PTH1R F424A mutant): 153.20±9.11; span (from the WT) (PTH1R L244A mutant; PTH1R L2442.71A, replicate 1): 180; ΔpEC50 (from the WT) (PTH1R L244A mutant; PTH1R L2442.71A, replicate 1): -2.593; span (from the WT) (PTH1R L244A mutant; PTH1R L2442.71A, replicate 2): 247.7; ΔpEC50 (from the WT) (PTH1R L244A mutant; PTH1R L2442.71A, replicate 2): -2.562; span (from the WT) (PTH1R L244A mutant; PTH1R L2442.71A, replicate 3): 245.8; ΔpEC50 (from the WT) (PTH1R L244A mutant; PTH1R L2442.71A, replicate 3): -2.458; ΔpEC50±SEM (PTH1R L244A mutant): -2.54±0.04; ΔpEC50 (from the WT) (PTH1R L244A mutant; replicate 1): -2.593; ΔpEC50 (from the WT) (PTH1R L244A mutant; replicate 2): -2.562; ΔpEC50 (from the WT) (PTH1R L244A mutant; replicate 3): -2.458; Span±SEM (PTH1R L244A mutant): 224.50±22.26
3 | H-SVSEIQLMHNLGKHLNSMERVEWLRKKLQDVHNF-OH [PTH, Teriparatide, human PTH 1-34, long-acting peptide agonist of PTH1R] | 90.7 | -0.41 | 103.2 | -0.706 | 154.9 | -0.481 | -0.53±0.09 | -0.41 | -0.706 | -0.481 | 116.27±19.65 | 181.9 | -1.332 | 192.6 | -1.492 | 166.2 | -1.466 | -1.43±0.05 | -1.332 | -1.492 | ΔpEC50 (from the WT) (PTH1R F424A mutant; replicate 3): -1.466; Span±SEM (PTH1R F424A mutant): 143.97±16.16; span (from the WT) (PTH1R L244A mutant; PTH1R L2442.71A, replicate 1): 138.7; ΔpEC50 (from the WT) (PTH1R L244A mutant; PTH1R L2442.71A, replicate 1): -0.566; span (from the WT) (PTH1R L244A mutant; PTH1R L2442.71A, replicate 2): 168.7; ΔpEC50 (from the WT) (PTH1R L244A mutant; PTH1R L2442.71A, replicate 2): -0.398; span (from the WT) (PTH1R L244A mutant; PTH1R L2442.71A, replicate 3): 186.9; ΔpEC50 (from the WT) (PTH1R L244A mutant; PTH1R L2442.71A, replicate 3): -0.464; ΔpEC50±SEM (PTH1R L244A mutant): -0.48±0.05; ΔpEC50 (from the WT) (PTH1R L244A mutant; replicate 1): -0.566; ΔpEC50 (from the WT) (PTH1R L244A mutant; replicate 2): -0.398; ΔpEC50 (from the WT) (PTH1R L244A mutant; replicate 3): -0.464; Span±SEM (PTH1R L244A mutant): 150.17±18.04

Source: paper PMC9586930, “Molecular insights into the distinct signaling duration for the peptide-induced PTH1R activation” (Nature Communications, 2022)
